Reference: ChEMBL document CHEMBL3885861, “Open TG-GATES”

Species: Rattus norvegicus
Experiment: Open TG-GATES - Regimen: Daily Repeat
Assay type: toxicity, organism-based, Sprague-Dawley
Parameters: regimen Daily Repeat, gender Male, age 6 weeks
Conditions: in vivo, po, route gavage; for APTT / Bas / Eos / Fbg / Hb / Ht / Lym / MCH / MCHC / MCV / Mono / Neu / PT / Plat / RBC / Ret / WBC: tissue Blood; for KIDNEY_L / KIDNEY_R / KIDNEY_TOTAL: tissue Kidney; for LIVER: tissue Liver; for A/G / ALP / ALT / AST / BUN / CRE / Ca / Cl / DBIL / GLC / IP / K / LDH / Na / PL / RALB / TBIL / TC / TG / TP / gamma-GTP: tissue Plasma
[1] = 0 mg/kg, 72 h, dose level Control, time 3 day
[2] = 0 mg/kg, […], dose level Control, time 7 day
[3] = 0 mg/kg, […], dose level Control, time 14 day
[4] = 0 mg/kg, […], dose level Control, time 28 day
[5] = 100 mg/kg, 72 h, dose level Low, time 3 day
[6] = 100 mg/kg, […], dose level Low, time 7 day
[7] = 100 mg/kg, […], dose level Low, time 14 day
[8] = 100 mg/kg, […], dose level Low, time 28 day

## CN/C(=N/CCSCc1nc[nH]c1C)NC#N [CIMETIDINE]
[1]
  TERMINAL_BW: 226.2 g
  APTT: 20.3 s
  Bas: 0.4%
  Eos: 0.6%
  Fbg: 220.2 mg/dL
  Hb: 13.5 g/dL
  Ht: 40.5%
  Lym: 84.6%
  MCH: 21 pg
  MCHC: 33.4%
  MCV: 63.1 fL
  Mono: 2.2%
  Neu: 11.2%
  PT: 12.7 s
  Plat: 132.2 x10_4/uL
  RBC: 642.2 x10_4/ul
  Ret: 6.3%
  WBC: 102.1 x10_2/uL
  KIDNEY_L: 1 g
  KIDNEY_R: 1 g
  KIDNEY_TOTAL: 2 g
  LIVER: 10.7 g
  A/G: 1.7
  ALP: 1069.6 IU/L
  ALT: 36.6 IU/L
  AST: 71 IU/L
  BUN: 14.4 mg/dL
  CRE: 0.4 mg/dL
  Ca: 10.7 mg/dL
  Cl: 102.8 meq/L
  DBIL: 0.1 mg/dL
  GLC: 198.2 mg/dL
  IP: 7.1 mg/dL
  K: 3.7 meq/L
  LDH: 150 IU/L
  Na: 141.2 meq/L
  PL: 158 mg/dL
  RALB: 3.5 g/dL
  TBIL: 0.2 mg/dL
  TC: 75.8 mg/dL
  TG: 103 mg/dL
  TP: 5.7 g/dL
  gamma-GTP: 1 IU/L
[2]
  TERMINAL_BW: 261.3 g
  APTT: 18.7 s
  Bas: 0.2%
  Eos: 0.6%
  Fbg: 228 mg/dL
  Hb: 14 g/dL
  Ht: 41.6%
  Lym: 80%
  MCH: 21.5 pg
  MCHC: 33.5%
  MCV: 64.2 fL
  Mono: 2.2%
  Neu: 15%
  PT: 12.1 s
  Plat: 129.9 x10_4/uL
  RBC: 649 x10_4/ul
  Ret: 5.8%
  WBC: 117.4 x10_2/uL
  KIDNEY_L: 1.1 g
  KIDNEY_R: 1.1 g
  KIDNEY_TOTAL: 2.1 g
  LIVER: 12.5 g
  A/G: 1.5
  ALP: 1067.6 IU/L
  ALT: 33.2 IU/L
  AST: 62.4 IU/L
  BUN: 16.6 mg/dL
  CRE: 0.4 mg/dL
  Ca: 10.7 mg/dL
  Cl: 103.2 meq/L
  DBIL: 0.1 mg/dL
  GLC: 236.6 mg/dL
  IP: 8 mg/dL
  K: 3.9 meq/L
  LDH: 165.2 IU/L
  Na: 141.2 meq/L
  PL: 156.4 mg/dL
  RALB: 3.4 g/dL
  TBIL: 0.2 mg/dL
  TC: 73.6 mg/dL
  TG: 138.8 mg/dL
  TP: 5.7 g/dL
  gamma-GTP: 1 IU/L
[3]
  TERMINAL_BW: 315.1 g
  APTT: 18.6 s
  Bas: 0%
  Eos: 0.8%
  Fbg: 218.6 mg/dL
  Hb: 14.3 g/dL
  Ht: 43.5%
  Lym: 79.2%
  MCH: 20 pg
  MCHC: 33%
  MCV: 60.7 fL
  Mono: 2.8%
  Neu: 16.8%
  PT: 12.1 s
  Plat: 129.1 x10_4/uL
  RBC: 717.8 x10_4/ul
  Ret: 4.6%
  WBC: 120.6 x10_2/uL
  KIDNEY_L: 1.3 g
  KIDNEY_R: 1.2 g
  KIDNEY_TOTAL: 2.5 g
  LIVER: 14.1 g
  A/G: 1.4
  ALP: 861.4 IU/L
  ALT: 41.4 IU/L
  AST: 72.8 IU/L
  BUN: 17 mg/dL
  CRE: 0.4 mg/dL
  Ca: 10.6 mg/dL
  Cl: 102.6 meq/L
  DBIL: 0.1 mg/dL
  GLC: 215.2 mg/dL
  IP: 7.4 mg/dL
  K: 4.1 meq/L
  LDH: 169.6 IU/L
  Na: 141.4 meq/L
  PL: 155.6 mg/dL
  RALB: 3.4 g/dL
  TBIL: 0.2 mg/dL
  TC: 70.8 mg/dL
  TG: 168.4 mg/dL
  TP: 5.9 g/dL
  gamma-GTP: 1 IU/L
[4]
  TERMINAL_BW: 384.7 g
  APTT: 20.4 s
  Bas: 0%
  Eos: 1.2%
  Fbg: 205.8 mg/dL
  Hb: 15.1 g/dL
  Ht: 44.2%
  Lym: 79.2%
  MCH: 19.2 pg
  MCHC: 34.1%
  MCV: 56.4 fL
  Mono: 2.2%
  Neu: 16.6%
  PT: 12.9 s
  Plat: 99.1 x10_4/uL
  RBC: 784 x10_4/ul
  Ret: 2.6%
  WBC: 121.2 x10_2/uL
  KIDNEY_L: 1.5 g
  KIDNEY_R: 1.5 g
  KIDNEY_TOTAL: 2.9 g
  LIVER: 15.5 g
  A/G: 1.2
  ALP: 772.6 IU/L
  ALT: 31 IU/L
  AST: 59.6 IU/L
  BUN: 16.2 mg/dL
  CRE: 0.5 mg/dL
  Ca: 10.1 mg/dL
  Cl: 102.4 meq/L
  DBIL: 0.1 mg/dL
  GLC: 235.6 mg/dL
  IP: 6.6 mg/dL
  K: 3.6 meq/L
  LDH: 151.6 IU/L
  Na: 140.6 meq/L
  PL: 137.4 mg/dL
  RALB: 3.3 g/dL
  TBIL: 0.2 mg/dL
  TC: 61.8 mg/dL
  TG: 119.8 mg/dL
  TP: 6 g/dL
  gamma-GTP: 1 IU/L
[5]
  TERMINAL_BW: 228.3 g
  APTT: 18 s
  Bas: 0.2%
  Eos: 1%
  Fbg: 220 mg/dL
  Hb: 12.8 g/dL
  Ht: 38.6%
  Lym: 77.6%
  MCH: 21.1 pg
  MCHC: 33.2%
  MCV: 63.6 fL
  Mono: 2.6%
  Neu: 17.4%
  PT: 12.6 s
  Plat: 127.7 x10_4/uL
  RBC: 607 x10_4/ul
  Ret: 6.9%
  WBC: 97.9 x10_2/uL
  KIDNEY_L: 1 g
  KIDNEY_R: 1 g
  KIDNEY_TOTAL: 2 g
  LIVER: 10.7 g
  A/G: 1.5
  ALP: 1125.6 IU/L
  ALT: 37 IU/L
  AST: 66.4 IU/L
  BUN: 14.8 mg/dL
  CRE: 0.4 mg/dL
  Ca: 10.9 mg/dL
  Cl: 103.2 meq/L
  DBIL: 0.1 mg/dL
  GLC: 195.6 mg/dL
  IP: 7.1 mg/dL
  K: 4.2 meq/L
  LDH: 137.8 IU/L
  Na: 140.8 meq/L
  PL: 155.8 mg/dL
  RALB: 3.4 g/dL
  TBIL: 0.2 mg/dL
  TC: 78.6 mg/dL
  TG: 109.8 mg/dL
  TP: 5.6 g/dL
  gamma-GTP: 1.2 IU/L
[6]
  TERMINAL_BW: 260 g
  APTT: 18.3 s
  Bas: 0.2%
  Eos: 0.8%
  Fbg: 227.6 mg/dL
  Hb: 13.5 g/dL
  Ht: 40.3%
  Lym: 81.6%
  MCH: 20.8 pg
  MCHC: 33.4%
  MCV: 62.2 fL
  Mono: 2%
  Neu: 14.6%
  PT: 12.2 s
  Plat: 126 x10_4/uL
  RBC: 648.2 x10_4/ul
  Ret: 5.4%
  WBC: 111.1 x10_2/uL
  KIDNEY_L: 1.1 g
  KIDNEY_R: 1.1 g
  KIDNEY_TOTAL: 2.2 g
  LIVER: 13 g
  A/G: 1.5
  ALP: 831 IU/L
  ALT: 34.8 IU/L
  AST: 64.2 IU/L
  BUN: 16.6 mg/dL
  CRE: 0.4 mg/dL
  Ca: 10.7 mg/dL
  Cl: 102 meq/L
  DBIL: 0.096 mg/dL
  GLC: 252.8 mg/dL
  IP: 7.8 mg/dL
  K: 4 meq/L
  LDH: 155 IU/L
  Na: 139.6 meq/L
  PL: 161 mg/dL
  RALB: 3.3 g/dL
  TBIL: 0.1 mg/dL
  TC: 78.8 mg/dL
  TG: 121 mg/dL
  TP: 5.6 g/dL
  gamma-GTP: 1.2 IU/L
[7]
  TERMINAL_BW: 308.9 g
  APTT: 19.3 s
  Bas: 0%
  Eos: 1%
  Fbg: 219.2 mg/dL
  Hb: 14.4 g/dL
  Ht: 43.9%
  Lym: 83.8%
  MCH: 19.5 pg
  MCHC: 32.8%
  MCV: 59.5 fL
  Mono: 2.2%
  Neu: 13%
  PT: 12.7 s
  Plat: 120.2 x10_4/uL
  RBC: 737.8 x10_4/ul
  Ret: 3.9%
  WBC: 93.7 x10_2/uL
  KIDNEY_L: 1.2 g
  KIDNEY_R: 1.3 g
  KIDNEY_TOTAL: 2.5 g
  LIVER: 13.9 g
  A/G: 1.4
  ALP: 969.6 IU/L
  ALT: 42 IU/L
  AST: 74.8 IU/L
  BUN: 17.6 mg/dL
  CRE: 0.4 mg/dL
  Ca: 10.5 mg/dL
  Cl: 102 meq/L
  DBIL: 0.1 mg/dL
  GLC: 205.2 mg/dL
  IP: 7.1 mg/dL
  K: 4 meq/L
  LDH: 210.8 IU/L
  Na: 141.4 meq/L
  PL: 142.2 mg/dL
  RALB: 3.4 g/dL
  TBIL: 0.2 mg/dL
  TC: 62.8 mg/dL
  TG: 137.8 mg/dL
  TP: 5.9 g/dL
  gamma-GTP: 0.8 IU/L
[8]
  TERMINAL_BW: 402.8 g
  APTT: 19.7 s
  Bas: 0.2%
  Eos: 1.2%
  Fbg: 217.4 mg/dL
  Hb: 14.6 g/dL
  Ht: 42.3%
  Lym: 79.4%
  MCH: 19.2 pg
  MCHC: 34.5%
  MCV: 55.8 fL
  Mono: 2.8%
  Neu: 15.6%
  PT: 12.9 s
  Plat: 114 x10_4/uL
  RBC: 758.2 x10_4/ul
  Ret: 2.8%
  WBC: 137.9 x10_2/uL
  KIDNEY_L: 1.4 g
  KIDNEY_R: 1.4 g
  KIDNEY_TOTAL: 2.8 g
  LIVER: 17.6 g
  A/G: 1.4
  ALP: 672 IU/L
  ALT: 35.4 IU/L
  AST: 66.4 IU/L
  BUN: 18.6 mg/dL
  CRE: 0.6 mg/dL
  Ca: 10.3 mg/dL
  Cl: 101.6 meq/L
  DBIL: 0.1 mg/dL
  GLC: 264.2 mg/dL
  IP: 6.9 mg/dL
  K: 3.5 meq/L
  LDH: 186 IU/L
  Na: 140.4 meq/L
  PL: 150.8 mg/dL
  RALB: 3.5 g/dL
  TBIL: 0.2 mg/dL
  TC: 70.2 mg/dL
  TG: 167.4 mg/dL
  TP: 6 g/dL
  gamma-GTP: 1.2 IU/L
